The record followed here is US20100035925A1, “COMPOUNDS, PHARMACEUTICAL CO[…] DMETHODS FOR […] INFECTIVITY” ([…], INC, priority 2004, published 2010).

Data set [1] deals with HIV drug resistant strains (pL10R and p1617-1). It counts as cell-based.

Structures are written as SMILES.

As to `O=C(O)C[S+]([O-])c1ccc2c3c(cccc13)C(=O)c1ccccc1-2` (centres unmarked) [Compound 111], the cytotoxicity result in the data set on transfected 293 cells is “without significant cytotoxicity”.

For the compound `COc1ccc2c(Cc3c4ccccc4cc4ccccc34)cncc2c1O` [Compound 1334], the “inhibitory activity on HIV infectivity (in words)” value in data set [1] is “lesser inhibitory activity”.
